According to US12404332B2, “Methods for diagnosing and treating cancers” (Research Development Foundation, priority 2020, dated 2025):
“Also recorded” adds a separate entry of the source.

Key:
PD-L1 in ID8agg cells = test: PD-L1 mRNA (RT-qPCR) in ID8agg cells; type: cell-based, mouse
Description: FIGS. 39A-C: CAMB reduces PD-L1 through ubiquitination. FIG. 39A, RT-qPCR for PD-L1 mRNA in OVCAR5 and ID8agg cells treated with (+) or without (−) chlorambucil for 48 hours. (n=4). FIG. 39B, Western blot for PD-L1 protein in OVCAR5 cells with (+) or without (−) MG132 for 6 or 20 hours. (upper panel). PD-L1 expression in OVCAR5 cells treated with chlorambucil 48 hours and/or MG132 for 6 hours (lower panel). FIG. 39C, Ubiquitinated PD-L1 was immunoprecipitated (IP) and subjected to Western blot analysis with anti-ubiquitin (Ub) antibody. Cells were treated with chlorambucil for indicated times prior to ubiquitination analysis.
Quantitative Real-Time Reverse Transcriptase Polymerase Chain Reaction: Total RNA was isolated from homogenized whole lung tissue with Trizol reagent (Invitrogen) according to manufacturer instructions. Subsequently, cDNA was synthesized with 1-2 μg of total RNA using the, SuperScript III reverse transcriptase (Invitrogen). Quantitative PCR (qPCR) was conducted using the Bio-Rad Real-Time PCR System (Applied Biosystems), amplified with transcript-specific primers with SYBR Green (Thermo Scientific), according to manufacturer instructions. Mouse primers were: Tyr, 5′-[…]-3′ (SEQ ID NO: 1) and 5′-[…]-3′ (SEQ ID NO: 2); gp100, 5′-[…]-3′ (SEQ ID NO: 3) and 5′-ID NO: 4); Trp-2, 5′-[…]-3′ (SEQ […]-3′ (SEQ ID NO: 5) and 5′-[…] […]

B16 cells = test: Tumor-initiating cell (TIC) flow cytometry, B16 cells; type: cell-based, mouse
Description: (§1) FIGS. 40A-C: CAMB suppresses mTORC1 signals and reduces TIC numbers. FIG. 40A, Western blots for proteins in the mTORC1 pathway. Cells were treated with chlorambucil as indicated concentration for 48 hours. FIG. 40B, Western blot for LC3I/II to assess autophagy in cell lysates treated±chlorambucil at indicated concentrations. FIG. 40C, Percent of ALDH^hi TIC by flow cytometry of ES2 cells cultured±chlorambucil. Percent CD44^+CD24^+ ID8agg TIC and CD44^+CD133^+CD24^+ B16 TIC detected by flow cytometry.
(§2) Flow cytometry: Mice were sacrificed by cervical dislocation after induction of deep isoflurane anesthesia. ID8agg tumors were collected and cells were stained as described (Derup et al., 2020) using LSR II hardware and analyzed by FACS Diva (BD Bioscience) or Flow Jo software (Flow Jo, LLC). Anti-mouse (clone 10F.9G2) and human (clone 29E.2A3) PD-L1 [both PE/Cy7, Cat #124314 (mouse) 329718 (human)] were matched with isotype control. Apoptosis assessment used Annexin V and propidium iodide (Thermo Scientific) per manufacturer instruction.

ID8agg cells = test: Tumor-initiating cell (TIC) flow cytometry, ID8agg cells; type: cell-based, mouse
PD-L1 = test: Tumor cell PD-L1 depletion by drugs (flow cytometry, immunoblot); type: cell-based, human and mouse
Description: High throughput Screening: B16 PD-L1 RFP cells were treated with 2.5 and 10 μM compounds from the Prestwick and LOPAC Libraries for 48 hours using the Agilent Bravo liquid pipetting platform. Then, cells were washed with PBS, and fixed with 4% paraformaldehyde (Electron Microscopy Sciences, Hatsfield, PA, Cat 15714S) and labeled with 2 μg/ml DAPI, (Molecular Probes, Cat D1306) and 1 μg/ml Cell Mask-Blue (Invitrogen, Cat. H32720). Plates were then imaged using the Operetta High Content Imaging System, Perkin Elmer, Waltham (DAPI and Cell Mask Blue, Ex 360-400, Em 410-480), and the RFP channels (Ex 520-550, Em 560-630) channels. Agents effecting ≥2-fold PD-L1 reduction in the RFP reporter without loss of ≥20% cell viability were candidate PD-L1 depletion agents.
as §2
(§3) Western blotting and immunoprecipitation: To prepare whole cell lysates, cells were harvested and lysed in RIPA (radioimmunoprecipitation assay) buffer plus 1 mM phenylmethylsulphonyl fluoride and Halt protease/phosphatase inhibitor cocktail (Thermo Scientific) at 4° C. Protein concentrations were measured by BCA Protein Assay Kit (Thermo Scientific). Protein was run on precast 4-15% sodium dodecyl sulfate polyacrylamide gels (Bio-Rad), transferred to polyvinylidene fluoride membranes (GE Water and Process Technologies), and then blocked in 5% non-fat milk for 1 hour at room temperature. The membranes were then incubated with 1:1000 diluted primary antibodies against indicated proteins (Cell Signaling). Specific antibody binding was detected by chemiluminescence using Western Lightening Plus regent (Perkin Elmer). Cells for (co) immunoprecipitation experiments were seeded in 15-cm dishes and cultured as described, using 6 million cells per immunoprecipitation reaction. For protein ubiquitination, cells were lysed in denaturing buffer (50 mM Tris-HCl, 0.5 mM EDTA and 1% SDS) followed by heating at 95° C. for 10 minutes and then quenched with 9 volumes of quenching buffer (0.5% Triton X-100, 20 mM Tris-HCl (pH 8.0), 137 mM NaCl, 10% glycerol, 2 mM EDTA). Protease inhibitor cocktail (Roche) was added fresh to all buffers. Cell lysates were incubated on a rotator for 30 minutes at 4° C., and then centrifuged at 20,000 g for 15 minutes at 4° C. Supernatants were subsequently incubated with anti-PD-L1 antibody overnight and processed using Dynabeads Protein G for Immunoprecipitation (Thermo Fisher Scientific). The final eluate was processed and Western blotting was performed.

mTORC1 = test: Western blots for mTORC1 pathway and LC3 autophagy; type: cell-based
Description: as §1, §3

O=C(O)CCCc1ccc(N(CCCl)CCCl)cc1 [chlorambucil]
PD-L1 mRNA (PD-L1 in ID8agg cells): significantly reduced | CD44^+CD24^+ TIC population (B16 cells): significantly reduced | CD44^+CD133^+CD24^+ TIC population (ID8agg cells): significantly reduced | effect on cell viability (PD-L1; over 2-3 days, human and mouse tumor lines): little effect on cell viability | expression of PD-L1 in cancer cells (PD-L1; summary statement): decreased expression of PD-L1 | autophagy (mTORC1): promote autophagy | mTORC1 signals (mTORC1): suppress mTORC1 signals; also recorded: inhibits mTORC1 signaling | LC3 lipidation (LC3 I and II) (mTORC1; Western blot): increased LC3 lipidation | phosphorylation of P70S6K and 4EBP1 (mTORC1; Western blot): reduced phosphorylation of P70S6K and 4EBP1 in a dose-dependent manner
